Test results from patent publication US11839659B2, “Proteolysis-targeting chimeric molecules (PROTACs) that induce degradation of indoleamine 2,3-dioxygenase (IDO) protein” (Northwestern University, priority 2020, dated 2023).
Entries after “also recorded” stand apart in the source; their conditions may differ. Peptide text beside a SMILES is read from it. * marks the point of attachment. Cbz = O=C(OCc1ccccc1)*

Tests used:
Assay type in all cases: cell-based
[1] = target: T1, IDO1 (Homo sapiens, UniProt P14902); test: Western blot: effect of competitors and pathway inhibitors on IDO-PROTAC induced IDO1 degradation; details: co-treatment with IDO-PROTAC, U87 cells where stated
T1 construct: IDO1 protein was induced in U87 cells with IFNg (50 ng/ml) for 24 hours followed by treatment with IDO-PROTAC; endogenous in cells; host or cells: U87 parental cells; GBM43 cells (IFNg-induced)
T1 sequence (P14902 whole entry): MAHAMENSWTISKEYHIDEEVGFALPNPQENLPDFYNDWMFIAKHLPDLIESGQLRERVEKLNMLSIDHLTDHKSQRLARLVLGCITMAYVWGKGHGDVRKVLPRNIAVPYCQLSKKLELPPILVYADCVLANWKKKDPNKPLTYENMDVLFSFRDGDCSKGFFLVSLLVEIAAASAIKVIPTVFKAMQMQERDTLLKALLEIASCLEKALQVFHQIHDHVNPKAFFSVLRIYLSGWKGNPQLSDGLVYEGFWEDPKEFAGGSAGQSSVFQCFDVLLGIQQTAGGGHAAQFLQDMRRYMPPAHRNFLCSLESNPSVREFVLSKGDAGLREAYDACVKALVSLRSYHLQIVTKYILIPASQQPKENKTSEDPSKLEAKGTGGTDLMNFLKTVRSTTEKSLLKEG

[2] = target: T1, IDO1; test: Western blot of IFNg-induced IDO1 protein levels in GBM43 cells after IDO-PROTAC treatment; details: IFNg (50 ng/ml) 24 hours, then IDO-PROTAC 24 hours
Description: (§1) FIG. 20. Discovery of lead IDO-PROTAC to induce IDO1 degradation in cancer cells. A. Schema for screening IDO-PROTAC compounds in U87 cells. […] Percent IFNg-induced IDO1 levels (normalized to untreated samples) were calculated in U87 cells after treating with IDO-PROTAC compounds at 0, 0.1, 1, and 10 uM concentration for 24 hours. C. […] IDO1 was induced in U87 and GBM43 cells with IFNg (50 ng/ml) for 24 hours followed by treatment with IDO-PROTAC for 24 hours before protein samples were prepared for western blotting analysis. D. Percent normalized IDO1 protein levels in U87 and GBM43 cells (from panel C) after treating with lead IDO-PROTAC (NU223612) for 24 hours. E & F. Testing moderate and poor IDO-PROTAC compounds on IDO1 protein levels in U87 cells. […] Structures of IDO-PROTAC (I), mutant IDO-PROTAC (J), and parental compound (K).

[3] = target: T1, IDO1; test: Enzyme-dependent (kynurenine production) and enzyme-independent (phospho-NFkB p65) functions of IDO1 in GBM cells; details: GBM cells (U87, GBM43)
Description: FIG. 24. […] A & B. Effect of IDO-PROTAC, mutant IDO-PROTAC, and IDO-inhibitor on kynurenine production in U87 & GBM43 cells respective cells. Cells were treated with IDO-PROTAC, mutant IDO-PROTAC, or IDO-inhibitor in the presence of INFg (50 ng/ml) for 24 hours and cell culture supernatants were collected to measure IFNg-induced kynurenine levels using a modified Erlich method. Cells cultured in the absence of IFNg serves as a control group. C. Western blotting analysis to determine the effect of IDO-PROTAC and IDO-inhibitor on IDO1 protein levels, phospho-NFkB (p65) levels, total-NFkB (p65) levels and GAPDH levels in U87 cells. IDO1 protein was induced with IFNg for 24 hours in U87 cells followed by treatment with IDO-PROTAC and IDO-inhibitor for 24 hours at multiple concentrations. D. Western blotting analysis to determine the effect of IDO-PROTAC, mutant IDO-PROTAC, and IDO-inhibitor on IDO1 protein levels, phospho-NFkB (p65) levels, total-NFkB (p65) levels and GAPDH levels in a breast cancer cell line, MDA MB 231. E. Western blotting analysis to determine the effect of IDO-PROTAC on the levels of IDO1 protein, phospho-NFkB (p65), total-NFkB (p65) and GAPDH in U87 IDO1 overexpressing (flag-tagged) cells. Cells were treated with DMSO or IDO-PROTAC (10 uM) for 24 hours prior to protein extraction. U87 parental cells serves as a control group for basal phosphorylation of NFkB. […]

[4] = target: T1, IDO1; test: Western blot of IFNg-induced IDO1 protein levels in U87 cells after IDO-PROTAC treatment; details: IFNg (50 ng/ml) 24 hours, then IDO-PROTAC 24 hours
Description: FIG. 2. Screening method for PROTAC-induced degradation of IDO1 using INFg-treated U87 parental cells.
as §1
FIG. 27. Representative western blots to identify a lead IDO-PROTAC in U87 cells. IDO1 protein was induced in U87 cells with IFNg (50 ng/ml) for 24 hours followed by treatment with IDO-PROTAC at 0, 0.1, 1, and 10 uM for 24 hours before protein samples were prepared for western blotting analysis of IDO1 and GAPDH.

Compound	Effect on NU223612 (IDO-PROTAC) induced IDO1 degradation [1]	IDO1 degradation (western blot) [2]	Effect on enzyme-dependent and enzyme-independent functions of IDO1 [3]	IDO1 degradation (western blot) [4]	Effect on NU223612 (IDO-PROTAC) induced IDO1 degradation ([1]; listed as CRBN ligand)
CC(C)C[C@@H](C=O)NC(=O)[C@H](CC(C)C)NC(=O)[C@H](CC(C)C)NC(=O)OCc1ccccc1 [MG132] (Cbz-Leu-Leu-Leu-aldehyde)	blocks NU223612 induced IDO1 degradation; also recorded: blocks IDO-PROTAC-induced IDO1 degradation				
NS(=O)(=O)OC[C@@H]1C[C@@H](n2ccc3c(N[C@H]4CCc5ccccc54)ncnc32)C[C@@H]1O [MLN4924]	blocks IDO-PROTAC-induced IDO1 degradation				
C[C@@H](C(=O)Nc1ccc(OC2CCN(C(=O)CCOCCOCCNc3cccc4c3C(=O)N(C3CCC(=O)NC3=O)C4=O)CC2)cc1)[C@H]1CC[C@@H](c2ccnc3ccc(F)cc32)CC1 (stereo partly shown) [NU223612]		induced IDO1 degradation	inhibits both enzyme-dependent and enzyme-independent functions of IDO1	induced IDO1 degradation	
Nc1cccc2c1C(=O)N(C1CCC(=O)NC1=O)C2=O (stereo not shown) [Pomalidomide]	blocks IDO-PROTAC-induced IDO1 degradation				blocks NU223612 induced IDO1 degradation
